Source: patent US20230129438A1, “IMMUNOMODULATING IMINE-OXAZOLINE AZALIDES” (Zoetis Services LLC, priority 2020, published 2023)
Entries after “also recorded” stand apart in the source; their conditions may differ. Like-named read-outs stand apart in the source and are kept apart here.

Assays:
TLR4 = target: T1, TLR4 (Bos taurus, UniProt Q9GL65); experiment: Drug binding partner identification (NPOT/SPR), TLR4; parameters: species or system bovine; settings: tissue PBMCs, Trachea
T1 sequence (Q9GL65 24-841): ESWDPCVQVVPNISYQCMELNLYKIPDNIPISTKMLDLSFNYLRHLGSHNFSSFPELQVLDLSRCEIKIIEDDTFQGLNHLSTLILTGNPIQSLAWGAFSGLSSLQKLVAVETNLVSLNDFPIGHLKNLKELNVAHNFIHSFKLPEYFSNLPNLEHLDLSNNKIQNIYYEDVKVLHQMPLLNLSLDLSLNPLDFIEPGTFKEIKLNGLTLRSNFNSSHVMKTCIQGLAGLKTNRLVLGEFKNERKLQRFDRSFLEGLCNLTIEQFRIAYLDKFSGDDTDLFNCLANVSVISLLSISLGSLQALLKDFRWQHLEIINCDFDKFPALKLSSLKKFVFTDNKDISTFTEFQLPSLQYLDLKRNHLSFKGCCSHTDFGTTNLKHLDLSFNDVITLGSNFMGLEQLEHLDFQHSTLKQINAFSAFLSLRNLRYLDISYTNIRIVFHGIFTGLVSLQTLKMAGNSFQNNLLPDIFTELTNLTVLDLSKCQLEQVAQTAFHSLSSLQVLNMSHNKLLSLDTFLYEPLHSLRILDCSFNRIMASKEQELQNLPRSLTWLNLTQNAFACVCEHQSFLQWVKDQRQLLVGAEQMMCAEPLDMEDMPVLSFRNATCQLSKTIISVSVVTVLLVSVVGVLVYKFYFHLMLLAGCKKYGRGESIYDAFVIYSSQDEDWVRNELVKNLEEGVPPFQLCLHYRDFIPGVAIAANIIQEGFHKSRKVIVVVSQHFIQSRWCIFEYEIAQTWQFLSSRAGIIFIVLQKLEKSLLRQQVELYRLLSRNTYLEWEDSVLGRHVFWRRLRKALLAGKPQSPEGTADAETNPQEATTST
Experimental: (§1) To further characterize the direct activity of the compounds of the invention, experiments to identify the drug's direct binding host partners(s) were performed with the aim of identifying the potential biological targets. Bovine primary cells (peripheral blood mononuclear cells [PBMCs] and polymorphonuclear cells [PMN/neutrophils]) and tissue (trachea, lung) protein homogenates were mixed with M9 and the macrolide, gamithromicin as a comparator. Tissue interactions were allowed to form using a heterogeneous assembly method (nematic protein organization technique, NPOT; Inoviem Scientific); and traditional western blots to identify native-structure proteins bound to the compound. Mass spectrometry analysis identified eight proteins involved in the interaction with M9 as compared to gamithromycin. The antibacterial macrolide gamithromycin was used as a comparator to differentiate specific binding to M9. These proteins were considered to be either direct binding partners of the drug or closely involved in the drug:target interaction (Table 6).
(§2) In order to add further clarity to binding partner identification, surface plasma resonance (SPR) technology was used. […]
(§3) KD is the equilibrium dissociation constant that was used to present the drug/target affinity. The identified targets associated with drug were measured by surface plasmon resonance (SPR) to define the KD.

IL-1β = experiment: Bovine whole blood assay, IL-1β; format: cell-based; settings: drug concentration giving overstimulation of IL-1β over LPS (cellular toxicity signal)
Experimental: (protected from light) for 30 minutes.

SLAMF9 = SLAMF9 (Bos taurus, UniProt E1BNF9); experiment: Surface plasmon resonance (SPR) drug/target binding, SLAMF9; parameters: species or system bovine; settings: read-out: Interaction KD
SLAMF9, sequence (E1BNF9 1-289): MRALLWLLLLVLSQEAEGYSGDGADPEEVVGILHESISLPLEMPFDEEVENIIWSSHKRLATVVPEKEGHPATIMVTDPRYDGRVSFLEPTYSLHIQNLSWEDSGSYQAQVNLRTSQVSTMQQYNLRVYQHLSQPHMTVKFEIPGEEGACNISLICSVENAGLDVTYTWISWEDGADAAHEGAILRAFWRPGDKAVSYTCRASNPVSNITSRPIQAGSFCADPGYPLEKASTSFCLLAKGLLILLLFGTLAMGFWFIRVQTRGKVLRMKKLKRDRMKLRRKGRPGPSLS
Experimental: as §1, §2, §3

LCN2 = target: T2, LCN2 (Bos taurus, UniProt A0AAA9TIZ6); experiment: Surface plasmon resonance (SPR) drug/target binding, LCN2; parameters: species or system bovine; settings: read-out: Interaction KD
T2 sequence (A0AAA9TIZ6 24-200): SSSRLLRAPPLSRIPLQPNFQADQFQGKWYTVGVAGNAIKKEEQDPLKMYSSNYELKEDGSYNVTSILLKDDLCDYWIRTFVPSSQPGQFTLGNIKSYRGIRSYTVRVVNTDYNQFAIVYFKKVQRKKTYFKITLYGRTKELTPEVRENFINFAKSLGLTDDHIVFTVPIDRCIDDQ
Experimental: as §1, §2, §3

[1] = Separate PK study, plasma concentration; settings: following a 10 mg/kg dose
P. multocida 46572 = experiment: In vivo mouse lung infection challenge model (murine efficacy model); settings: P. multocida infection in mice
[2] = tested on: bovine respiratory disease (BRD); experiment: Natural bovine respiratory disease study; format: in vivo, beef calves
Experimental: The primary clinical endpoint for efficacy was treatment failure/success over a 14-day observation period. Clinically normal beef calves (150-200 kg) at moderate risk for BRD were dosed on arrival to the feedlot. Animals (N=114/group) received saline (T01), 5 mg/kg M9 (T02) or 10 mg/kg M9 (T03); or Zactran (T04). […] Bacterial isolates were collected at necropsy and MICs were evaluated (Table 4).

NLRX1 = NLRX1 (Bos taurus, UniProt A7MB19); experiment: Drug binding partner identification (NPOT/SPR), NLRX1; parameters: species or system bovine; settings: tissue PBMCs
NLRX1, sequence (A7MB19 1-973): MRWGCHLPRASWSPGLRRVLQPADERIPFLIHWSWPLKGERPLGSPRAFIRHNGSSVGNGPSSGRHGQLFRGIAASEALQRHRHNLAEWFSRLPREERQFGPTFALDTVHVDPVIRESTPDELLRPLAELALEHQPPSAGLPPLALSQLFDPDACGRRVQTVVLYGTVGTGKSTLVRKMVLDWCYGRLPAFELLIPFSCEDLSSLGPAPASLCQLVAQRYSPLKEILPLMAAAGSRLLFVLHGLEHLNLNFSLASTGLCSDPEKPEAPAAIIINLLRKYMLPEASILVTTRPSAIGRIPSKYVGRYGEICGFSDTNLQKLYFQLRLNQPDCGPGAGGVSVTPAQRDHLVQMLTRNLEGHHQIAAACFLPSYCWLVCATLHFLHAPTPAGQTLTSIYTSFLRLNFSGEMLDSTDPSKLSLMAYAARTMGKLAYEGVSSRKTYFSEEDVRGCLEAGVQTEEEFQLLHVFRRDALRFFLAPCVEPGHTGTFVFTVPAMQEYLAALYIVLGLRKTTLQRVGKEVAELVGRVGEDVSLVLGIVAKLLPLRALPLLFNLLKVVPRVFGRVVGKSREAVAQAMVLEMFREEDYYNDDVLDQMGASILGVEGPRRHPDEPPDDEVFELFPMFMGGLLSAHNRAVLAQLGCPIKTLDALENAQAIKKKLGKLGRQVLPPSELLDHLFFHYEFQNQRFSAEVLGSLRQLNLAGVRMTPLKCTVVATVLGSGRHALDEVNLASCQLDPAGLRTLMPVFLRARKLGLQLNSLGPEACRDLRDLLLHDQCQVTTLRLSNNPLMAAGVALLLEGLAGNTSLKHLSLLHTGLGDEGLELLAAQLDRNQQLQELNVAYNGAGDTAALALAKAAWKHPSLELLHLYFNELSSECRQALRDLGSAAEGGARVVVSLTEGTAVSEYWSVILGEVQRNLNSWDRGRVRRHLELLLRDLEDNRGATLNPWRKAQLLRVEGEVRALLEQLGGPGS
Experimental: as §1, §2, §3

P. multocida = experiment: Murine P. multocida intranasal challenge study with lung tissue RNA sequence analysis; format: in vivo, mouse; settings: 32 mg/kg subcutaneous 18 hours after challenge (T03); placebo 0%
Experimental: In one murine P. multocida intranasal challenge study, mice were administered tulathromycin (16 mg/kg; T02), M9 (32 mg/kg; T03), or ceftiofur (9 mg/kg; T04) by subcutaneous injection 18 hours after bacterial challenge (5×10^3 CFU/mouse) for lung tissue RNA sequence analysis. Survival at Day 7 was about 80%, 50%, and 90% for T02, T03, and T04, respectively, compared to placebo at 0%. Differential gene expression from total lung tissue RNA sequence analysis indicated at least 226 unique genes were up or down regulated (with significance) for T03. Output from ingenuity pathway analysis of these unique genes predicted major upstream regulators of the involved pathways. Data was analyzed based on the number of genes being modulated in the same direction that were associated with a given upstream regulator. An activation z-score of 2 or greater is considered significant and the direction change is indicated by + (activated) or − (inhibited). The top 5 pathways included: IL-9 signaling, glucocorticoid receptor signaling, prolactin signaling, JAK STAT signaling, and IL-17 signaling. The top 6 upstream regulators (activation z-score) included: lipopolysaccharide (−6.725), TNF (−4.669), IFNγ (−5.759), IL-1β (−5.947), STAT1 (−2.787), and poly rI:rC-RNA (−5.289). Even though this study was run in the murine model, the top upstream regulators identified as being modulated by M9 include an almost ubiquitous overlap with the pathways identified in the natural disease study as being key mediators in BRD, and therefore is modulating highly relevant pathways in BRD pathobiology.

[3] = Separate study of M9 versus saline control (lung lesions, mortality); format: in vivo; settings: 10 mg/kg
LPO = LPO (Bos taurus, UniProt P80025); experiment: Drug binding partner identification (NPOT/SPR), LPO; parameters: species or system bovine; settings: tissue Trachea, PBMCs, PMNs
Experimental: as §1, §2, §3

[4] = tested on: M. haemolytica (strain: OSU-012103-BHI); experiment: Bovine M. haemolytica intratracheal lung challenge model; format: in vivo

CCCNC[C@]1(O)[C@H](C)O[C@@H](O[C@H]2[C@H](C)[C@@H](O[C@@H]3O[C@H](C)C[C@H](NC)[C@H]3O)[C@](C)(O)C[C@@H](C)CN[C@H](C)[C@@H](O)[C@](C)(O)[C@@H](CC)OC(=O)[C@@H]2C)C[C@@]1(C)OC [Example M9, (2R,3S,4R,5R,8R,10R,11R,12S,13S,14R)-2-ethyl-3,4,10-trihydroxy-13-(((2R,4R,5S,6S)-5-hydroxy-4-methoxy-4,6-dimethyl-5-((propylamino)methyl)-tetrahydro-2H-pyran-2-yl)oxy)-11-(((2S,3R,4S,6R)-3-hydroxy-6-methyl-4-(methylamino)tetrahydro-2H-pyran-2-yl)oxy)-3,5,8,10,12,14-hexamethyl-1-oxa-6-azacyclopentadecan-15-one]
Interaction (TLR4): Indirect | IL-Iβ OS of LPS (IL-1β): > 500 µM | Kd (SLAMF9; pH 5.5, SPR): 6.33 mM | Kd (SLAMF9; pH 6.5, SPR): 2.15 mM | Kd (LCN2; pH 5.5, SPR): 0.435 mM | Kd (LCN2; pH 6.5, SPR): 4.21 mM | maximum plasma concentration [1]: 5 µg/mL | clinical efficacy, in words (P. multocida 46572): clinically efficacious | Percent failure (treatment failure) ([2]; 10 mg/kg (T03), dosed on arrival, 14-day observation, saline 43%): 8.8% | efficacy versus untreated control groups, in words ([2]; reduction of lung lesions and treatment failure): statistical superiority | Interaction (NLRX1): Indirect | Survival at Day 7 (P. multocida): ~50% | lung lesions ([3]; saline control 31%, p=0.023): 20% | Mortality ([3]; saline control 38.9%, p=0.025): 13% | Interaction (LPO): Indirect | Mortality ([4]; T02: 10 mg/kg subcutaneous Day −1, M. haemolytica challenge Day 0, saline 4/6): 1/6 | IL-6 levels, in words ([4]; bovine M. haemolytica challenge, blood biomarker): significantly reduced | CD163 expression, in words ([4]; cattle, monocytes/macrophages in whole blood, flow cytometry): suppressed; also recorded: mitigates the pathologic increase
